Our source for the Kd values is patent US20050192314A1, “Urea derivatives as C-kit modulators” (Ambit Biosciences Corporation, priority 2003, published 2005).

In the test the target is T1, KIT(DKIN) (Homo sapiens, UniProt P10721).
T1 construct: KIT(DKIN); made in house
Nature of the test: Binding constant (Kd) measurement, phage-displayed kinase competition binding assay: KIT(DKIN). The source says: The term “ND” represents non-determined values.

Some results are limits rather than exact numbers.

T1 sequence (P10721 589-937 limits assumed): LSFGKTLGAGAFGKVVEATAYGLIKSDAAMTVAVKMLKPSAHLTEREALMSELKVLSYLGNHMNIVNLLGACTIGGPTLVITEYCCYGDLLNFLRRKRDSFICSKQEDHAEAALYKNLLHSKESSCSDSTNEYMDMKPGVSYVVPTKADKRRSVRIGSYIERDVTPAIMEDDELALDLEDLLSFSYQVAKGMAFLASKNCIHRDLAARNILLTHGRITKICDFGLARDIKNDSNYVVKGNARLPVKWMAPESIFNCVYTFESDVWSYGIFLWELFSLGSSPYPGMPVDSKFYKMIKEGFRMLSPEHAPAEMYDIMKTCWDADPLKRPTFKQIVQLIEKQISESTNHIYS

One may read the Kd as the equilibrium constant for the complex coming apart. The compound `O=C(Nc1ccc(Cl)cc1)Nc1cc(C(F)(F)F)cc(Cl)n1` [Compound Z76] returned a Kd of 100 to 1000 nM. For `CC(C)(C)c1cc(NC(=O)Nc2ccc(NC(=O)c3c[nH]c(=O)nc3-c3ccncc3)cc2)no1` [Compound N19] the value was 1000 to 10000 nM; for `CC(C)(C)c1cc(NC(=O)Nc2ccc3cc4ccccc4cc3c2)no1` [Compound A18], 1000 to 10000 nM; for `CC(C)(C)c1cc(NC(=O)Nc2ccc(NC(=O)C3CCCCC3)cc2)no1` [Compound N91], 1000 to 10000 nM. `CC(C)(C)c1cc(NC(=O)Nc2ccc(NC(=O)Cc3csc4ccccc34)cc2)no1` [Compound N107] came in with a dissociation constant Kd of 1000 to 10000 nM. Compound `CC(C)(C)c1cc(NC(=O)Nc2ccc(NC(=O)c3cc4cc(Br)ccc4s3)cc2)no1` [Compound N126] showed an equilibrium dissociation constant (Kd) of 1000 to 10000 nM. For `CC(C)(C)c1cc(NC(=O)Nc2ccc(NC(=O)c3cnc4ccccc4c3)cc2)no1` [Compound N108] the value was 100 to 1000 nM.

`CC(C)(C)c1cc(NC(=O)Nc2ccc(OCc3ccc4ccccc4c3)cc2)no1` [Compound G3] displayed a Kd of 100 to 1000 nM. Compound `CC(C)(C)c1cc(NC(=O)Nc2ccc(NC(=O)c3ccncc3)cc2)no1` [Compound N167] came in with a Kd of 100 to 1000 nM. On to `Cc1ccc(NC(=O)c2ccc(NC(=O)Nc3cc(C(C)(C)C)on3)cc2)cc1` [Compound N84], for which the Kd is less than 100 nM. `Cn1c(SCC(=O)Nc2ccc(NC(=O)Nc3cc(C(C)(C)C)on3)cc2)nnc1-c1cccn(Cc2ccccc2)c1=O` [Compound Z47] gave an equilibrium dissociation constant (Kd) of 100 to 1000 nM.

`CC(C)(C)c1cc(NC(=O)Nc2ccc(NC(=O)Cc3ccccc3)cc2)no1` [Compound N35] showed a dissociation constant Kd of 100 to 1000 nM. `CC(C)(C)c1cc(NC(=O)Nc2ccc(NC(=O)c3ccc4cccnc4n3)cc2)no1` [Compound N144] yielded a Kd of 100 to 1000 nM.

Take `Cc1nnsc1C(=O)Nc1ccc(NC(=O)Nc2cc(C(C)(C)C)on2)cc1` [Compound N18]: the equilibrium dissociation constant (Kd) is 1000 to 10000 nM.

On to `Cn1cc(C(=O)Nc2ccc(NC(=O)Nc3cc(C(C)(C)C)on3)cc2)c2ccccc21` [Compound N119], for which the Kd was 100 to 1000 nM. Consider `CC(C)(C)c1cc(NC(=O)Nc2ccc(C(=O)NCCO)cc2)no1` [Compound N87], for which the Kd was 100 to 1000 nM. To `CC(C)(C)c1cc(NC(=O)Nc2ccc(NC(=O)CCc3ccccc3)cc2)no1` [Compound N96] belongs 100 to 1000 nM; to `C=C/C(=C\C=C\Cl)NC(=O)Nc1ccc(C(=O)OCCOC)cc1` [Compound Z54], 1000 to 10000 nM; to `Cn1cc(C(=O)Nc2ccc(NC(=O)Nc3cc(C(C)(C)C)on3)cc2)c(C(F)(F)F)n1` [Compound N20], 100 to 1000 nM.

Turning to `Cn1nc(C(C)(C)C)cc1NC(=O)Nc1cccc([N+](=O)[O-])c1` [Compound D21], the dissociation constant (Kd) was greater than 10000 nM.

In the case of `Cc1ccncc1C(=O)Nc1ccc(NC(=O)Nc2cc(C(C)(C)C)on2)cc1` [Compound N104], the Kd was 100 to 1000 nM.

Consider `COc1ccc(-c2cc(C(=O)Nc3ccc(NC(=O)Nc4cc(C(C)(C)C)on4)cc3)c(C)o2)cc1` [Compound N118], for which the Kd fell in the range of 1000 to 10000 nM. Compound `Cn1nc(-c2ccccc2)c2cc(C(=O)Nc3ccc(NC(=O)Nc4cc(C(C)(C)C)on4)cc3)sc21` [Compound N5] showed an equilibrium dissociation constant (Kd) of 100 to 1000 nM. `CC(C)(CO)c1cc(NC(=O)Nc2ccc(Cl)cc2)on1` [Compound A22] gave a Kd of 1000 to 10000 nM.

In turn, `CCc1ccc(C(=O)Nc2ccc(NC(=O)Nc3cc(C(C)(C)C)on3)cc2)cc1` [Compound N32] showed a dissociation constant (Kd) of 100 to 1000 nM. Compound `Cn1nc(C(C)(C)C)cc1NC(=O)Nc1ccc(OCc2ccccc2)cc1` [Compound H2] returned a dissociation constant (Kd) of 100 to 1000 nM. `Cn1nc(C(C)(C)C)cc1C(=O)Nc1ccc(NC(=O)Nc2cc(C(C)(C)C)on2)cc1` [Compound N10] returned a dissociation constant (Kd) of 100 to 1000 nM. `Cc1ccc(CNc2ccc(NC(=O)Nc3cc(C(C)(C)C)on3)cc2)cc1` [Compound O9] showed a Kd of 100 to 1000 nM. For the compound `CC(C)(C)c1cc(NC(=O)Nc2ccc(Cl)cc2Cl)no1` [Compound A7], the equilibrium dissociation constant (Kd) was 1000 to 10000 nM. The compound `CC(C)(C)c1cc(NC(=O)Nc2ccc(OCc3ccc(OC(F)(F)F)cc3)cc2)no1` [Compound G5] had a Kd of 100 to 1000 nM.

Compound `CC(C)(C)c1cc(NC(=O)Nc2ccc(-c3nc(-c4ccc(Cl)cc4)no3)cc2)no1` [Compound P7] gave a Kd of 100 to 1000 nM. For `CC1CCCN(CCOc2ccc(NC(=O)Nc3cc(C(C)(C)C)on3)cc2)C1` (stereo not shown) [Compound G44] the value was greater than 10000 nM; for `CC(C)(C)c1cc(NC(=O)Nc2ccc(NC(=O)c3cn4cc(Cl)ccc4n3)cc2)no1` [Compound N3], less than 100 nM.

`Cc1ccc(NC(=O)Nc2cc(C(C)(C)C)on2)cc1` [Compound A33] returned a dissociation constant (Kd) of 100 to 1000 nM. For `CC(C)(C)c1cc(NC(=O)Nc2ccc(NC(=O)c3ccnc4ccccc34)cc2)no1` [Compound N141] the value was 100 to 1000 nM.

As to `CC(C)(C)c1cc(NC(=O)Nc2ccc(NC(=O)c3ccc(Cl)nc3)cc2)no1` [Compound N125], the Kd lay in the range of 1000 to 10000 nM. To `CC(C)(C)c1cc(NC(=O)Nc2ccc(NC(=O)c3cnnc4ccccc34)cc2)no1` [Compound N147] belongs 100 to 1000 nM. Turning to `CC(C)(C)c1cc(NC(=O)Nc2ccc(C(=O)NCc3ccccc3)cc2)no1` [Compound N89], the dissociation constant Kd lay in the range of 100 to 1000 nM. For `CC(C)(C)c1cc(NC(=O)Nc2ccc(NC(=O)c3c(F)cccc3F)cc2)no1` [Compound N37], the Kd lay in the range of 1000 to 10000 nM. In the case of `CC(C)(C)c1cc(NC(=O)Nc2ccc(OCCN3CCOCC3)c3ccccc23)no1` [Compound K1], the Kd lay in the range of 1000 to 10000 nM. The compound `CC(C)(C)c1cc(NC(=O)Nc2ccc(OCc3ccc4nonc4c3)cc2)no1` [Compound G55] came in with a dissociation constant (Kd) of 100 to 1000 nM. In turn, `CC(C)(C)c1cc(NC(=O)Nc2ccc(NC(=O)c3cccc4nsnc34)cc2)no1` [Compound N109] registered a Kd of 100 to 1000 nM. `COc1ccc(NC(=O)Nc2cc(C(F)(F)F)cc(Cl)n2)cc1` [Compound Z71] yielded a Kd of 100 to 1000 nM. To `COc1cc(NC(=O)Nc2cc(C(C)(C)C)no2)cc(OC)c1OC` [Compound A49] belongs 100 to 1000 nM; to `COc1nc(C)cc(C)c1C(=O)Nc1ccc(NC(=O)Nc2cc(C(C)(C)C)on2)cc1` [Compound N22], 1000 to 10000 nM; to `CC(C)(C)c1cc(NC(=O)Nc2ccc(NC(=O)C3CNCCN3)cc2)no1` (stereo not shown) [Compound N152], greater than 10000 nM.

In the case of `COc1ccc(NC(=O)Nc2cc(C(C)(C)C)no2)cc1` [Compound A30], the dissociation constant Kd is 100 to 1000 nM. Compound `COc1ccc(NC(=O)Nc2cc(C(C)(C)C)on2)cc1` [Compound A29] yielded an equilibrium dissociation constant (Kd) of 1000 to 10000 nM.

Take `Cc1ncccc1C(=O)Nc1ccc(NC(=O)Nc2cc(C(C)(C)C)on2)cc1` [Compound N145]: the Kd lay within 100 to 1000 nM.

In turn, `Cc1ccc(-n2nc(C(C)(C)C)cc2NC(=O)Nc2ccc(OCCN3CCOC(CO)C3)c3ccccc23)cc1` (stereo not shown) [Compound G38] had a Kd of 100 to 1000 nM. For `CC(C)(C)c1cc(NC(=O)Nc2ccc(OCCc3ccccn3)cc2)no1` [Compound G27] the value was 100 to 1000 nM; for `CC(C)(C)c1cc(NC(=O)Nc2ccc(OCc3ccc(F)cc3)cc2)no1` [Compound G35], less than 100 nM. `CC(C)(C)c1cc(NC(=O)Nc2ccc(NC(=O)c3cc4cc(Br)ccc4s3)cc2)no1` [Compound N17] showed a Kd of 100 to 1000 nM.

Take `C[C@H](NC(=O)c1ccc(NC(=O)Nc2cc(C(C)(C)C)on2)cc1)c1ccccc1` [Compound N88]: the dissociation constant Kd was 100 to 1000 nM. With `O=C(Nc1ccno1)Nc1ccc(Cl)cc1Cl` [Compound Z12], the Kd was in the range of 1000 to 10000 nM. `COc1cccc(CNC(=O)Nc2cc(C(C)(C)C)on2)c1` [Compound B3] came in with a dissociation constant Kd of 1000 to 10000 nM. To `Cc1nn(C)c(Cl)c1C(=O)Nc1ccc(NC(=O)Nc2cc(C(C)(C)C)on2)cc1` [Compound N116] belongs 100 to 1000 nM; to `CC(C)(C)c1cc(NC(=O)Nc2ccc(-c3ccccc3)cc2)no1` [Compound A23], 100 to 1000 nM. Turning to `COC(=O)c1cccc(COc2ccc(NC(=O)Nc3cc(C(C)(C)C)on3)cc2)c1` [Compound G7], the dissociation constant Kd lay in the range of 100 to 1000 nM. In turn, `CC(C)(C)c1cc(NC(=O)Nc2ccc(OCc3cccc(F)c3)cc2)no1` [Compound G14] displayed a dissociation constant Kd of 100 to 1000 nM. `CSc1ncc(Br)c(C(=O)Nc2ccc(NC(=O)Nc3cc(C(C)(C)C)on3)cc2)n1` [Compound N114]: the Kd lay within 100 to 1000 nM. `CC(C)(C)c1cc(NC(=O)Nc2ccc(CCc3ccccc3)cc2)no1` [Compound A15]: the Kd is 100 to 1000 nM. Compound `CC(C)(C)c1cc(N2CCCN(c3ccc(OCc4ccccc4)cc3)C2=O)on1` [Compound E2] displayed a dissociation constant (Kd) of 1000 to 10000 nM. Consider `CC(C)(C)c1cc(NC(=O)Nc2ccc(NC(=O)C3CCNCC3)cc2)no1` [Compound N150], for which the Kd lay within 1000 to 10000 nM. Compound `Cc1ccc(-n2nc(C(C)(C)C)cc2NC(=O)Nc2ccc(OCc3ccccc3)cc2)cc1` [Compound H5] gave an equilibrium dissociation constant (Kd) greater than 10000 nM. `NC(=O)c1c(NC(=O)Nc2ccc(Cl)c(Cl)c2)sc2c1CCCC2` [Compound Z56] registered an equilibrium dissociation constant (Kd) greater than 10000 nM. As for `O=C(Nc1ccc(Cl)cc1)Nc1ccc(-n2nc(Br)c(Br)c2Br)cc1` [Compound Z49], the dissociation constant (Kd) lay in the range of 100 to 1000 nM. Regarding `CC(C)(C)c1cc(NC(=O)Nc2ccc(OCCN3CCC(O)CC3)cc2)no1` [Compound G48], the dissociation constant Kd is greater than 10000 nM. As for `CC(C)(C)c1cc(NC(=O)Nc2ccncc2)no1` [Compound A53], the Kd is 1000 to 10000 nM. In turn, `CC(C)(C)c1cc(NC(=O)Nc2ccc(OCCc3ccncc3)cc2)no1` [Compound G22] registered a dissociation constant (Kd) of less than 100 nM.

In the case of `CC(C)(C)c1cc(NC(=O)Nc2ccc(OCc3ccccc3-c3ccccc3)cc2)no1` [Compound G8], the dissociation constant Kd was in the range of 1000 to 10000 nM.

Turning to `CC(C)(C)c1cc(NC(=O)Nc2ccc(OCc3c(Cl)cccc3Cl)cc2)no1` [Compound G19], the dissociation constant Kd lay within 100 to 1000 nM. The compound `CC(C)Oc1ccc(NC(=O)Nc2cc(C(C)(C)C)no2)cc1` [Compound G33] displayed an equilibrium dissociation constant (Kd) of less than 100 nM. Compound `CC(C)(C)c1cc(NC(=O)Nc2ccc(Oc3ccccc3)cc2)no1` [Compound A24] registered a dissociation constant Kd of 100 to 1000 nM. In turn, `Cc1ccc(-n2nc(C(C)(C)C)cc2NC(=O)Nc2cc(C(C)(C)C)on2)cc1` [Compound H11] came in with a Kd greater than 10000 nM. As to `CC(C)(C)c1cc(NC(=O)Nc2ccc(NC(=O)c3nccnc3C(N)=O)cc2)no1` [Compound N138], the Kd fell in the range of 100 to 1000 nM.
